# Measurements published in US6613718B2, “Aryl ether derivatives and processes for their preparation and herbicidal and desiccant compositions containing them” (Ishihara Sangyo Kaisha, Ltd., priority 2001, dated 2003).
# Assays:
# Assay type in all cases: in vivo
# [1] = tested on: field corn (Zea mays L., var. Dekalb 535, CORN); assay: Pre-emerge greenhouse screening, crop safety (phytotoxicity rating); settings: 14 days after application
# Outline: (§1)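 Herbicidal effect was recorded as percent-style phytotoxicity, 0 (none) to 100 (complete plant death), two weeks post-application. Applications were made over soil (pre-emerge, sown a day earlier) or over 2-3 leaf plants (post-emerge), using acetone solutions at 15–1000 g ai/ha.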
# [2] = tested on: soybean (Glycine max L., var. Pella 86, SOY); assay: as above; settings: 14 days after application
# Outline: as §1
# [3] = tested on: upland rice (Oryza sp., var.Tebonnet, RICE); assay: as above; settings: 14 days after application
# Outline: as §1
# [4] = tested on: lambsquarters (Chenopodium album, CHEAL); assay: Post-emerge greenhouse herbicide activity screening, phytotoxicity rating
# Outline: as §1
# [5] = tested on: barnyardgrass (Echinochloa crus-galli, ECHCG); assay: as above; settings: 14 days after application
# Outline: as §1
# [6] = tested on: sicklepod (Cassia obtusifolia, CASOB); assay: as above
# Outline: as §1
# [7] = tested on: common ragweed (Ambrosia artemisiifolia L., AMBEL); assay: as above
# Outline: as §1
# [8] = tested on: johnsongrass (Sorghum halepense, SORHA); assay: as above; settings: 14 days after application
# Outline: as §1
# [9] = tested on: redroot pigweed (Amaranthus retroflexus, AMARE); assay: as above
# Outline: as §1
# [10] = tested on: large crabgrass (Digitaria sanguinalis, DIGSA); assay: as above; settings: 14 days after application
# Outline: as §1
# [11] = tested on: green foxtail (Setaria viridis, SETVI); assay: as above
# Outline: as §1
# [12] = tested on: velvetleaf (Abutilon theophrasti, ABUTH); assay: as above; settings: 14 days after application
# Outline: as §1
# [13] = tested on: ivyleaf morningglory (Ipomoea hederacea, IPOHE); assay: as above; settings: 14 days after application
# Outline: as §1
# [14] = tested on: lambsquarters (Chenopodium album, CHEAL); assay: Pre-emerge greenhouse herbicide activity screening, phytotoxicity rating; settings: 14 days after application
# Outline: as §1
# [15] = tested on: barnyardgrass (Echinochloa crus-galli, ECHCG); assay: as above; settings: 14 days after application
# Outline: as §1
# [16] = tested on: sicklepod (Cassia obtusifolia, CASOB); assay: as above; settings: 14 days after application
# Outline: as §1
# [17] = tested on: common ragweed (Ambrosia artemisiifolia L., AMBEL); assay: as above; settings: 14 days after application
# Outline: as §1
# [18] = tested on: johnsongrass (Sorghum halepense, SORHA); assay: as above; settings: 14 days after application
# Outline: as §1
# [19] = tested on: redroot pigweed (Amaranthus retroflexus, AMARE); assay: as above; settings: 14 days after application
# Outline: as §1
# [20] = tested on: large crabgrass (Digitaria sanguinalis, DIGSA); assay: as above; settings: 14 days after application
# Outline: as §1
# [21] = tested on: green foxtail (Setaria viridis, SETVI); assay: as above; settings: 14 days after application
# Outline: as §1
# [22] = tested on: velvetleaf (Abutilon theophrasti, ABUTH); assay: as above; settings: 14 days after application
# Outline: as §1
# [23] = tested on: ivyleaf morningglory (Ipomoea hederacea, IPOHE); assay: as above; settings: 14 days after application
# Outline: as §1
# [24] = tested on: soybean (Glycine max L., var. Pella 86, SOY); assay: Post-emerge greenhouse screening, crop safety (phytotoxicity rating); settings: 14 days after application
# Outline: as §1
# [25] = tested on: upland rice (Oryza sp., var.Tebonnet, RICE); assay: as above; settings: 14 days after application
# Outline: as §1
# [26] = tested on: field corn (Zea mays L., var. Dekalb 535, CORN); assay: Post-emerge greenhouse screening, crop safety / corn selectivity (phytotoxicity rating); settings: 14 days after application
# Outline: as §1
# [27] = 125 g ai/ha, 14 days after application
# [28] = 250 g ai/ha, 14 days after application
compound,measurement,setting,value
Cn1c(C(F)(F)F)cc(=O)n(-c2cc(Oc3ccccc3)c(C#N)cc2F)c1=S [Compound 1-69],"CORN crop damage, phytotoxicity rating (0-100 scale)",[1]; 125 g ai/ha,5
same,"CORN crop damage, phytotoxicity rating (0-100 scale)",[1]; 250 g ai/ha,10
same,"SOY crop damage, phytotoxicity rating (0-100 scale)",[2]; 125 g ai/ha,30
same,"SOY crop damage, phytotoxicity rating (0-100 scale)",[2]; 250 g ai/ha,50
same,"RICE crop damage, phytotoxicity rating (0-100 scale)",[3]; 125 g ai/ha,50
same,"RICE crop damage, phytotoxicity rating (0-100 scale)",[3]; 250 g ai/ha,60
same,CHEAL phytotoxicity rating (0-100 scale),[4]; 31.3 g ai/ha,80
same,CHEAL phytotoxicity rating (0-100 scale),[4]; 62.5 g ai/ha,80
same,CHEAL phytotoxicity rating (0-100 scale),[4]; [27],100
same,CHEAL phytotoxicity rating (0-100 scale),[4]; [28],100
same,ECHCG phytotoxicity rating (0-100 scale),[5]; 125 g ai/ha,0
same,ECHCG phytotoxicity rating (0-100 scale),[5]; 250 g ai/ha,25
same,CASOB phytotoxicity rating (0-100 scale),[6]; 31.3 g ai/ha,50
same,CASOB phytotoxicity rating (0-100 scale),[6]; 62.5 g ai/ha,65
same,CASOB phytotoxicity rating (0-100 scale),[6]; [27],75
same,CASOB phytotoxicity rating (0-100 scale),[6]; [28],70
same,AMBEL phytotoxicity rating (0-100 scale),[7]; 31.3 g ai/ha,70
same,AMBEL phytotoxicity rating (0-100 scale),[7]; 62.5 g ai/ha,70
same,AMBEL phytotoxicity rating (0-100 scale),[7]; [27],30
same,AMBEL phytotoxicity rating (0-100 scale),[7]; [28],35
same,SORHA phytotoxicity rating (0-100 scale),[8]; 125 g ai/ha,0
same,SORHA phytotoxicity rating (0-100 scale),[8]; 250 g ai/ha,0
same,AMARE phytotoxicity rating (0-100 scale),[9]; 31.3 g ai/ha,100
same,AMARE phytotoxicity rating (0-100 scale),[9]; 62.5 g ai/ha,100
same,AMARE phytotoxicity rating (0-100 scale),[9]; [27],99
same,AMARE phytotoxicity rating (0-100 scale),[9]; [28],100
same,DIGSA phytotoxicity rating (0-100 scale),[10]; 125 g ai/ha,0
same,DIGSA phytotoxicity rating (0-100 scale),[10]; 250 g ai/ha,30
same,SETVI phytotoxicity rating (0-100 scale),[11]; 31.3 g ai/ha,0
same,SETVI phytotoxicity rating (0-100 scale),[11]; 62.5 g ai/ha,50
same,SETVI phytotoxicity rating (0-100 scale),[11]; [27],0
same,SETVI phytotoxicity rating (0-100 scale),[11]; [28],30
same,ABUTH phytotoxicity rating (0-100 scale),[12]; 125 g ai/ha,100
same,ABUTH phytotoxicity rating (0-100 scale),[12]; 250 g ai/ha,100
same,IPOHE phytotoxicity rating (0-100 scale),[13]; 125 g ai/ha,100
same,IPOHE phytotoxicity rating (0-100 scale),[13]; 250 g ai/ha,100
same,CHEAL phytotoxicity rating (0-100 scale),[14]; 125 g ai/ha,100
same,CHEAL phytotoxicity rating (0-100 scale),[14]; 250 g ai/ha,100
same,ECHCG phytotoxicity rating (0-100 scale),[15]; 125 g ai/ha,90
same,ECHCG phytotoxicity rating (0-100 scale),[15]; 250 g ai/ha,95
same,CASOB phytotoxicity rating (0-100 scale),[16]; 125 g ai/ha,100
same,CASOB phytotoxicity rating (0-100 scale),[16]; 250 g ai/ha,99
same,AMBEL phytotoxicity rating (0-100 scale),[17]; 125 g ai/ha,100
same,AMBEL phytotoxicity rating (0-100 scale),[17]; 250 g ai/ha,100
same,SORHA phytotoxicity rating (0-100 scale),[18]; 125 g ai/ha,95
same,SORHA phytotoxicity rating (0-100 scale),[18]; 250 g ai/ha,95
same,AMARE phytotoxicity rating (0-100 scale),[19]; 125 g ai/ha,100
same,AMARE phytotoxicity rating (0-100 scale),[19]; 250 g ai/ha,100
same,DIGSA phytotoxicity rating (0-100 scale),[20]; 125 g ai/ha,99
same,DIGSA phytotoxicity rating (0-100 scale),[20]; 250 g ai/ha,100
same,SETVI phytotoxicity rating (0-100 scale),[21]; 125 g ai/ha,100
same,SETVI phytotoxicity rating (0-100 scale),[21]; 250 g ai/ha,100
same,ABUTH phytotoxicity rating (0-100 scale),[22]; 125 g ai/ha,100
same,ABUTH phytotoxicity rating (0-100 scale),[22]; 250 g ai/ha,100
same,IPOHE phytotoxicity rating (0-100 scale),[23]; 125 g ai/ha,100
same,IPOHE phytotoxicity rating (0-100 scale),[23]; 250 g ai/ha,100
same,"SOY crop damage, phytotoxicity rating (0-100 scale)",[24]; 125 g ai/ha,0
same,"SOY crop damage, phytotoxicity rating (0-100 scale)",[24]; 250 g ai/ha,50
same,"RICE crop damage, phytotoxicity rating (0-100 scale)",[25]; 125 g ai/ha,0
same,"RICE crop damage, phytotoxicity rating (0-100 scale)",[25]; 250 g ai/ha,0
same,"CORN crop damage, phytotoxicity rating (0-100 scale)",[26]; 125 g ai/ha,0
same,"CORN crop damage, phytotoxicity rating (0-100 scale)",[26]; 250 g ai/ha,5
Cn1c(C(F)(F)F)cc(=O)n(-c2cc(Oc3ccccc3O)c(C#N)cc2F)c1=S [Compound 1-70],"CORN crop damage, phytotoxicity rating (0-100 scale)",[1]; 125 g ai/ha,15
same,"CORN crop damage, phytotoxicity rating (0-100 scale)",[1]; 250 g ai/ha,15
same,"SOY crop damage, phytotoxicity rating (0-100 scale)",[2]; 125 g ai/ha,30
same,"SOY crop damage, phytotoxicity rating (0-100 scale)",[2]; 250 g ai/ha,80
same,"RICE crop damage, phytotoxicity rating (0-100 scale)",[3]; 125 g ai/ha,50
same,"RICE crop damage, phytotoxicity rating (0-100 scale)",[3]; 250 g ai/ha,55
same,CHEAL phytotoxicity rating (0-100 scale),[4]; [27],100
same,CHEAL phytotoxicity rating (0-100 scale),[4]; [28],100
same,ECHCG phytotoxicity rating (0-100 scale),[5]; 125 g ai/ha,55
same,ECHCG phytotoxicity rating (0-100 scale),[5]; 250 g ai/ha,80
same,CASOB phytotoxicity rating (0-100 scale),[6]; [27],65
same,CASOB phytotoxicity rating (0-100 scale),[6]; [28],65
same,AMBEL phytotoxicity rating (0-100 scale),[7]; [27],60
same,AMBEL phytotoxicity rating (0-100 scale),[7]; [28],65
same,SORHA phytotoxicity rating (0-100 scale),[8]; 125 g ai/ha,0
same,SORHA phytotoxicity rating (0-100 scale),[8]; 250 g ai/ha,25
same,AMARE phytotoxicity rating (0-100 scale),[9]; [27],100
same,AMARE phytotoxicity rating (0-100 scale),[9]; [28],100
same,DIGSA phytotoxicity rating (0-100 scale),[10]; 125 g ai/ha,15
same,DIGSA phytotoxicity rating (0-100 scale),[10]; 250 g ai/ha,30
same,SETVI phytotoxicity rating (0-100 scale),[11]; [27],65
same,SETVI phytotoxicity rating (0-100 scale),[11]; [28],75
same,ABUTH phytotoxicity rating (0-100 scale),[12]; 125 g ai/ha,100
same,ABUTH phytotoxicity rating (0-100 scale),[12]; 250 g ai/ha,100
same,IPOHE phytotoxicity rating (0-100 scale),[13]; 125 g ai/ha,99
same,IPOHE phytotoxicity rating (0-100 scale),[13]; 250 g ai/ha,99
same,CHEAL phytotoxicity rating (0-100 scale),[14]; 125 g ai/ha,100
same,CHEAL phytotoxicity rating (0-100 scale),[14]; 250 g ai/ha,100
same,ECHCG phytotoxicity rating (0-100 scale),[15]; 125 g ai/ha,85
same,ECHCG phytotoxicity rating (0-100 scale),[15]; 250 g ai/ha,95
same,CASOB phytotoxicity rating (0-100 scale),[16]; 125 g ai/ha,65
same,CASOB phytotoxicity rating (0-100 scale),[16]; 250 g ai/ha,85
same,AMBEL phytotoxicity rating (0-100 scale),[17]; 125 g ai/ha,90
same,AMBEL phytotoxicity rating (0-100 scale),[17]; 250 g ai/ha,99
same,SORHA phytotoxicity rating (0-100 scale),[18]; 125 g ai/ha,65
same,SORHA phytotoxicity rating (0-100 scale),[18]; 250 g ai/ha,99
same,AMARE phytotoxicity rating (0-100 scale),[19]; 125 g ai/ha,100
same,AMARE phytotoxicity rating (0-100 scale),[19]; 250 g ai/ha,100
same,DIGSA phytotoxicity rating (0-100 scale),[20]; 125 g ai/ha,85
same,DIGSA phytotoxicity rating (0-100 scale),[20]; 250 g ai/ha,99
same,SETVI phytotoxicity rating (0-100 scale),[21]; 125 g ai/ha,75
same,SETVI phytotoxicity rating (0-100 scale),[21]; 250 g ai/ha,100
same,ABUTH phytotoxicity rating (0-100 scale),[22]; 125 g ai/ha,100
same,ABUTH phytotoxicity rating (0-100 scale),[22]; 250 g ai/ha,100
same,IPOHE phytotoxicity rating (0-100 scale),[23]; 125 g ai/ha,99
same,IPOHE phytotoxicity rating (0-100 scale),[23]; 250 g ai/ha,99
same,"SOY crop damage, phytotoxicity rating (0-100 scale)",[24]; 125 g ai/ha,30
same,"SOY crop damage, phytotoxicity rating (0-100 scale)",[24]; 250 g ai/ha,65
same,"RICE crop damage, phytotoxicity rating (0-100 scale)",[25]; 125 g ai/ha,0
same,"RICE crop damage, phytotoxicity rating (0-100 scale)",[25]; 250 g ai/ha,0
same,"CORN crop damage, phytotoxicity rating (0-100 scale)",[26]; 125 g ai/ha,0
same,"CORN crop damage, phytotoxicity rating (0-100 scale)",[26]; 250 g ai/ha,0
